How the values were obtained:
Assay in all cases: Steady-state kinetic constants, bioluminescence activity
[1] = target: T1, Photinus pyralis luciferase variant Ppy WT-TS5/I351V, PpyWT-TS (SEQ ID NO: 22) with Ile457Val/Ala482Gly/His489Lys/Ala503Asn/Lys543Gln/Ile351Val, SEQ ID NO: 12 (Photinus pyralis, UniProt P08659, A215L/A482G/A503N/E354K/F295L/H489K/I232A/I351V/I457V/K543Q/T214A); format: biochemical
T1 construct: N-terminal GPLGS; pGEX-6P-2 GST fusion (tag cleaved), E. coli BL21

[2] = tested on: PpyLit (chimeric luciferase, SEQ ID NO: 8) variant S284T/F465R; format: biochemical, Photinus pyralis / Luciola italica
Protocol: (§1) Reactions were initiated by injection of solutions of the substrate being maintained at saturating concentration. Kinetic constants were determined using a nonlinear least squares method of the Enzyme Kinetics Pro software (SynTex), which fits data from the Michalis-Menten equation to a rectangular hyperbola. The corresponding kcat values were obtained by dividing the Vmax values by the amount (μmol) of each luciferase in the assay mixtures.

[3] = tested on: PpyLit (chimeric luciferase, SEQ ID NO: 8) variant I232A/E354K; format: biochemical, Photinus pyralis / Luciola italica
Protocol: as §1

[4] = tested on: PpyLit, chimeric luciferase of PpyWT residues 1-439 and LitWT residues 440-550, SEQ ID NO: 8; format: biochemical, Photinus pyralis / Luciola italica
Protocol: as §1

[5] = tested on: PpyLit (chimeric luciferase, SEQ ID NO: 8) variant S284T/I351V/E354K; format: biochemical, Photinus pyralis / Luciola italica
Protocol: as §1

[6] = tested on: Ppy RE-TSLit, chimeric luciferase of Ppy RE-TS N-domain and LitWT C-domain; format: biochemical, Photinus pyralis / Luciola italica
Protocol: as §1

[7] = tested on: PpyLit (chimeric luciferase, SEQ ID NO: 8) variant I351V/E354K/F465R; format: biochemical, Photinus pyralis / Luciola italica
Protocol: as §1

[8] = target: T2, Photinus pyralis luciferase variant Ppy RE-TS, SEQ ID NO: 24 (Photinus pyralis, UniProt P08659, A215L/E354K/F295L/I232A/S284T/T214A); format: biochemical
T2 construct: N-terminal GPLGS; pGEX-6P-2 GST fusion (tag cleaved), E. coli BL21

[9] = read-out: Km Mg-ATP, pH 7.8, LH2 saturating
[10] = pH 7.8, LH2 saturating, read-out: Km Mg-ATP

T2 sequence (P08659 whole entry T214A/A215L/I232A/S284T/F295L/E354K, the tested form may be a part): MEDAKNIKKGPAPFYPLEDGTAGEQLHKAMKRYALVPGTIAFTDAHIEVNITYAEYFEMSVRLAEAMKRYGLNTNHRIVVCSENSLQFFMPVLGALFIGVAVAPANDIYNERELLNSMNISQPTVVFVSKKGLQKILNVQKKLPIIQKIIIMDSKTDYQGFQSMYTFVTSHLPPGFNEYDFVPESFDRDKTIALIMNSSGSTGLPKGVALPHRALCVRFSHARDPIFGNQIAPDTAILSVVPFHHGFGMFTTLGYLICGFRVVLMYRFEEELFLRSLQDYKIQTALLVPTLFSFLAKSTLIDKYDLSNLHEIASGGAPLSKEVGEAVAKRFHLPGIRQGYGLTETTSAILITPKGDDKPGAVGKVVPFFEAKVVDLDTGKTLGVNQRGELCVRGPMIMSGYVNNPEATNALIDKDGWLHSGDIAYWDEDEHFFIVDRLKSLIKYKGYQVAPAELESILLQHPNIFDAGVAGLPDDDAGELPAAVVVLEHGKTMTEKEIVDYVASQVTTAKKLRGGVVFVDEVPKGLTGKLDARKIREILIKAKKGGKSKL
T1 sequence (P08659 whole entry T214A/A215L/I232A/F295L/I351V/E354K/I457V/A482G/H489K/A503N/K543Q, the tested form may be a part): as the sequence (P08659 whole entry T214A/A215L/I232A/S284T/F295L/E354K, the tested form may be a part) above, with T284S, I351V, I457V, A482G, H489K, A503N, K543Q counted along it

**Q.** Which kcat/Km ([1]; kcat divided by Mg-ATP Km) does the source give for Nc1ncnc2c1ncn2[C@@H]1O[C@H](COP(=O)(O)OP(=O)(O)OP(=O)(O)O)[C@@H](O)[C@H]1O [Mg-ATP] here?
**A.** 3160 ± 70 M⁻¹ s⁻¹

**Q.** And the Km [1, 9]?
**A.** 79 ± 5 µM

**Q.** And the kcat/Km ([2]; kcat divided by Mg-ATP Km)?
**A.** 1670 ± 140 M⁻¹ s⁻¹

**Q.** What about the Km [2, 10] of the same compound?
**A.** 60 ± 6 µM

**Q.** What about the kcat/Km ([3]; kcat divided by Mg-ATP Km) of the same compound?
**A.** 3290 ± 100 M⁻¹ s⁻¹

**Q.** What about the Km [3, 10] of the same compound?
**A.** 76 ± 4 µM

**Q.** And the “enhanced catalytic efficiency (kcat/Km ATP)” value ([4]; compared to PpyWT)?
**A.** 2.9 fold

**Q.** And the kcat/Km ([4]; kcat divided by Mg-ATP Km)?
**A.** 6040 ± 120 M⁻¹ s⁻¹

**Q.** And the Km [4, 10]?
**A.** 53 ± 5 µM

**Q.** What about the kcat/Km ([5]; kcat divided by Mg-ATP Km) of the same compound?
**A.** 1360 ± 140 M⁻¹ s⁻¹

**Q.** What about the Km [5, 10] of the same compound?
**A.** 95 ± 9 µM

**Q.** And the kcat/Km ([6]; kcat divided by Mg-ATP Km)?
**A.** 1130 ± 120 M⁻¹ s⁻¹

**Q.** And the Km [6, 10]?
**A.** 79 ± 9 µM

**Q.** What about the kcat/Km ([7]; kcat divided by Mg-ATP Km) of the same compound?
**A.** 3090 ± 90 M⁻¹ s⁻¹

**Q.** What about the Km [7, 10] of the same compound?
**A.** 94 ± 8 µM

**Q.** And the kcat/Km ([8]; kcat divided by Mg-ATP Km)?
**A.** 820 ± 90 M⁻¹ s⁻¹

**Q.** What about the Km [8, 9] of the same compound?
**A.** 68 ± 5 µM
